We go through two compounds from ChEMBL document CHEMBL5321219, “Selective degradation of cellular BRD3 and BRD4-L promoted by PROTAC molecules in six cancer cell lines” (Eur J Med Chem, 2023).

One assay concerns Mus musculus. Briefly: In vivo PROTAC activity at CRBN/BRD4-L in SCID mouse xenografted with human MM1.S cells assessed as reduction in BRD4-L protein level in tumor at 100 mg/kg, po measured after 6 hrs by Western blot analysis. It is filed as functional, organism-based. (In general: A xenograft is tissue or cells of one species grown in another, often human tumour cells in immunodeficient mice.)

In the next assay the test system is MV4-11. As to the kind of experiment: Antiproliferative activity against human MV4-11 cells assessed as cell growth inhibition measured after 3 days by CellTitre-Glo assay. The following applies: MV4-11, 72 h. It counts as functional, cell-based.
Assay [1] deals with MM1.S. Briefly: Antiproliferative activity against human MM1.S cells assessed as cell growth inhibition measured after 4 days by CellTitre-Glo assay. It is filed as functional, cell-based. The note with it: 96 h.
Assay [2] concerns MM1.S. As to the kind of experiment: Downregulation of c-Myc expression in human MM1.S cells at 1 uM measured after 1 to 24 hrs by Western blot analysis. The following applies: time 1-24 hrs. It is filed as functional, cell-based.
In another assay the test system is MCF7. As to the kind of experiment: Antiproliferative activity against human MCF7 cells assessed as cell growth inhibition measured after 4 days by CCK-8 assay. It is filed as functional, cell-based. The following applies: MCF7, 96 h.
Assay [3] has as its target T1, Protein cereblon/Bromodomain-containing protein 3 (Homo sapiens) (UniProt Q15059+Q96SW2). As to the kind of experiment: PROTAC activity at CRBN/BRD3 in human MV4-11 cells assessed as induction of protein degradation at 0.5 to 10 uM measured after 24 hrs by Western blot analysis. It is filed as cell-based. The note with it: dose 0.5-10 µM. For orientation: A western blot detects proteins with antibodies after separation by electrophoresis.

Assay [4] deals with T1, Protein cereblon/Bromodomain-containing protein 3 (Homo sapiens). As to the kind of experiment: PROTAC activity at CRBN/BRD3 in human MM1.S cells assessed as induction of protein degradation at 1 uM measured around 1 to 3 hrs by Western blot analysis. It counts as cell-based. The note with it: time 1-3 hrs.
The target in assay [5] is T2, Protein cereblon/Bromodomain-containing protein 2 (Homo sapiens) (UniProt P25440+Q96SW2). As to the kind of experiment: PROTAC activity at CRBN/BRD2 in human MM1.S cells assessed as induction of protein degradation at 1 uM measured after 1 to 24 hrs by Western blot analysis. The following applies: time 1-24 hrs. It is filed as cell-based.
Assay [6] concerns the target T3, Protein cereblon/Bromodomain-containing protein 4 (Homo sapiens) (UniProt O60885+Q96SW2). As to the kind of experiment: PROTAC activity at CRBN/BRD4-S in human MV4-11 cells assessed as induction of protein degradation at 0.5 to 10 uM measured after 24 hrs by Western blot analysis. It counts as cell-based. The following applies: dose 0.5-10 µM.
For assay [7], the target named is T3, Protein cereblon/Bromodomain-containing protein 4 (Homo sapiens). As to the kind of experiment: PROTAC activity at CRBN/BRD4-L in human MM1.S cells assessed as induction of protein degradation at 1 uM measured around 1 to 3 hrs by Western blot analysis. It is filed as cell-based. The note with it: time 1-3 hrs.
Assay [8] deals with T2, Protein cereblon/Bromodomain-containing protein 2 (Homo sapiens). As to the kind of experiment: PROTAC activity at CRBN/BRD2 in human MM1.S cells assessed as induction of protein degradation at 1 uM measured around 1 to 3 hrs by Western blot analysis. It counts as cell-based. The following applies: time 1-3 hrs.
The target of assay [9] is T3, Protein cereblon/Bromodomain-containing protein 4 (Homo sapiens). Briefly: PROTAC activity at CRBN/BRD4-L in human MCF7 cells assessed as induction of protein degradation at 1 to 50 uM measured after 24 hrs by Western blot analysis. It is filed as cell-based. The following applies: dose 1-50 µM.
The target is the same in assay [10]. Briefly: PROTAC activity at CRBN/BRD4-S in human MM1.S cells assessed as induction of protein degradation at 1 uM measured after 1 to 24 hrs by Western blot analysis. The note with it: time 1-24 hrs. It is filed as cell-based.
In assay [11] the target is T1, Protein cereblon/Bromodomain-containing protein 3 (Homo sapiens). Briefly: PROTAC activity at CRBN/BRD3 in human MCF7 cells assessed as induction of protein degradation at 1 uM measured around 1 to 3 hrs by Western blot analysis. It counts as cell-based. The note with it: time 1-3 hrs.
Another assay has as its system A549. Briefly: Antiproliferative activity against human A549 cells assessed as cell growth inhibition measured after 4 days by CCK-8 assay. It is filed as functional, cell-based. The following applies: A549, 96 h. (Tetrazolium dyes change colour on reduction, which living cells bring about.)
For assay [12], the target named is T2, Protein cereblon/Bromodomain-containing protein 2 (Homo sapiens). Briefly: PROTAC activity at CRBN/BRD2 in human MCF7 cells assessed as induction of protein degradation at 1 uM measured around 1 to 3 hrs by Western blot analysis. It is filed as cell-based. The note with it: time 1-3 hrs.
A further assay concerns HeLa. Briefly: Antiproliferative activity against human HeLa cells assessed as cell growth inhibition measured after 4 days by CCK-8 assay. It is filed as functional, cell-based. The following applies: 96 h.
Assay [13] deals with T1, Protein cereblon/Bromodomain-containing protein 3 (Homo sapiens). As to the kind of experiment: PROTAC activity at CRBN/BRD3 in human MM1.S cells assessed as induction of protein degradation measured after 24 hrs by Western blot analysis. It is filed as cell-based.
Assay [14] addresses T2, Protein cereblon/Bromodomain-containing protein 2 (Homo sapiens). Briefly: PROTAC activity at CRBN/BRD2 in human MV4-11 cells assessed as induction of protein degradation at 0.5 to 10 uM measured after 24 hrs by Western blot analysis. It is filed as cell-based. The following applies: dose 0.5-10 µM.
The target of assay [15] is T3, Protein cereblon/Bromodomain-containing protein 4 (Homo sapiens). Briefly: PROTAC activity at CRBN/BRD4-L in human MV4-11 cells assessed as induction of protein degradation at 0.5 to 10 uM measured after 24 hrs by Western blot analysis. The note with it: dose 0.5-10 µM. It counts as cell-based.
A further assay concerns HepG2. As to the kind of experiment: Antiproliferative activity against human HepG2 cells assessed as cell growth inhibition measured after 4 days by CCK-8 assay. It is filed as functional, cell-based. The following applies: HepG2, 96 h.
In assay [16] the target is T4, Bromodomain-containing protein 3 (Homo sapiens, UniProt Q15059). Briefly: Binding affinity to recombinant human BRD3 BD2 (306 to 417 residues) assessed as inhibition constant by fluorescence polarization binding assay.
Assay [17] deals with T1, Protein cereblon/Bromodomain-containing protein 3 (Homo sapiens). As to the kind of experiment: PROTAC activity at CRBN/BRD3 in human HGC-27 cells assessed as induction of protein degradation at 1 uM measured around 1 to 3 hrs by Western blot analysis. It is filed as cell-based. The following applies: time 1-3 hrs.
Assay [18] concerns the target T4, Bromodomain-containing protein 3. Briefly: Binding affinity to recombinant human BRD3 BD1 (24 to 144 residues) assessed as inhibition constant by fluorescence polarization binding assay.
For assay [19], the target named is T3, Protein cereblon/Bromodomain-containing protein 4 (Homo sapiens). As to the kind of experiment: PROTAC activity at CRBN/BRD4-L in human MCF7 cells assessed as induction of protein degradation at 1 uM measured around 1 to 3 hrs by Western blot analysis. It is filed as cell-based. The note with it: time 1-3 hrs.
Assay [20] shares this target. As to the kind of experiment: PROTAC activity at CRBN/BRD4-L in human MM1.S cells assessed as induction of protein degradation measured after 24 hrs by Western blot analysis. It counts as cell-based.
Assay [21] has as its target T1, Protein cereblon/Bromodomain-containing protein 3 (Homo sapiens). Briefly: PROTAC activity at CRBN/BRD3 in human MCF7 cells assessed as induction of protein degradation at 1 to 50 uM measured after 24 hrs by Western blot analysis. It counts as cell-based. The note with it: dose 1-50 µM.
Assay [22] deals with T3, Protein cereblon/Bromodomain-containing protein 4 (Homo sapiens). As to the kind of experiment: PROTAC activity at CRBN/BRD4-L in human HGC-27 cells assessed as induction of protein degradation at 1 uM measured around 1 to 3 hrs by Western blot analysis. It counts as cell-based. The note with it: time 1-3 hrs.
The target in assay [23] is T1, Protein cereblon/Bromodomain-containing protein 3 (Homo sapiens). Briefly: PROTAC activity at CRBN/BRD3 in human MM1.S cells assessed as induction of protein degradation at 1 uM measured after 1 to 24 hrs by Western blot analysis. It is filed as cell-based. The note with it: time 1-24 hrs.
Assay [24] addresses T2, Protein cereblon/Bromodomain-containing protein 2 (Homo sapiens). Briefly: PROTAC activity at CRBN/BRD2 in human HGC-27 cells assessed as induction of protein degradation at 1 uM measured around 1 to 3 hrs by Western blot analysis. It counts as cell-based. The following applies: time 1-3 hrs.
The target in assay [25] is T3, Protein cereblon/Bromodomain-containing protein 4 (Homo sapiens). Briefly: PROTAC activity at CRBN/BRD4-L in human HeLa cells assessed as induction of protein degradation at 1 to 50 uM measured after 24 hrs by Western blot analysis. It is filed as cell-based. The note with it: dose 1-50 µM.
For assay [26], the target named is T1, Protein cereblon/Bromodomain-containing protein 3 (Homo sapiens). As to the kind of experiment: PROTAC activity at CRBN/BRD3 in human HeLa cells assessed as induction of protein degradation at […] measured after 24 hrs by Western blot analysis. It counts as cell-based. The following applies: dose lower 1.0 µM.
The target in assay [27] is T3, Protein cereblon/Bromodomain-containing protein 4 (Homo sapiens). As to the kind of experiment: PROTAC activity at CRBN/BRD4-L in human MM1.S cells assessed as induction of protein degradation at 1 uM measured after 1 to 24 hrs by Western blot analysis. The following applies: time 1-24 hrs. It is filed as cell-based.
In the next assay the test system is HGC-27. As to the kind of experiment: Antiproliferative activity against human HGC-27 cells assessed as cell growth inhibition measured after 4 days by CCK-8 assay. It counts as functional, cell-based. The following applies: HGC-27, 96 h.

Molecules are shown by their SMILES. Active and inactive are the calls of the source. No cut-off for these calls is given here.

T3 sequence (Q96SW2 whole entry, looked up, other chains not shown): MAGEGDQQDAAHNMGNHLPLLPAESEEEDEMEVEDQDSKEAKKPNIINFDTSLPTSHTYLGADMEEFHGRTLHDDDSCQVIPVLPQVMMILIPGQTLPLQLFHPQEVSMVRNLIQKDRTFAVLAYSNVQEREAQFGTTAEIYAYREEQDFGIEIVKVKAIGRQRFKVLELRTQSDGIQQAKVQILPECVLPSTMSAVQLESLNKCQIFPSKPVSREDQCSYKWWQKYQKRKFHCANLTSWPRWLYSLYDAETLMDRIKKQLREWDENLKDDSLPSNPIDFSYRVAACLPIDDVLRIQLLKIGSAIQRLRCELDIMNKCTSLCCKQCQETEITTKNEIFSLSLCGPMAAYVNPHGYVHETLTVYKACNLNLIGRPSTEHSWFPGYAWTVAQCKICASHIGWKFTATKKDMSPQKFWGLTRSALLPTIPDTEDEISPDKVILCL
T1 sequence (Q15059 2-726 limits assumed): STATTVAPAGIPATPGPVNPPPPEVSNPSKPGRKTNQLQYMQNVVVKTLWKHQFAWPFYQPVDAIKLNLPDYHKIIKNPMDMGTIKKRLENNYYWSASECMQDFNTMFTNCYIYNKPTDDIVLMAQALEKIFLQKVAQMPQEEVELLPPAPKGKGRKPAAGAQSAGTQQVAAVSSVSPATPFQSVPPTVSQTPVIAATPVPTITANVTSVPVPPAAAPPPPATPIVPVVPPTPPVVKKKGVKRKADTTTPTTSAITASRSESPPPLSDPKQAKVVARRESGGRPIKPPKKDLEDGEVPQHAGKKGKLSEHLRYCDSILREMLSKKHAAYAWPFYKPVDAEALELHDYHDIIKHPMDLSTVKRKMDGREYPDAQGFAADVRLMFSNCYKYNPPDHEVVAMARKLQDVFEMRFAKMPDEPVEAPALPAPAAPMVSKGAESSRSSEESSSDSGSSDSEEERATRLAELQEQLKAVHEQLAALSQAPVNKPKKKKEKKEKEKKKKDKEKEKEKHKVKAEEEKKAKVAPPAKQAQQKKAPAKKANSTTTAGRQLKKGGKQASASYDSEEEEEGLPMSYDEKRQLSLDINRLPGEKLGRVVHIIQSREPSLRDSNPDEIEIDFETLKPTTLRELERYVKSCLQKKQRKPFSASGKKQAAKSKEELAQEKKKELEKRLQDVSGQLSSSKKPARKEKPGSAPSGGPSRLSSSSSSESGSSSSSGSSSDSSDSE
T1 sequence (Q96SW2 whole entry partner): as the sequence (Q96SW2 whole entry, looked up, other chains not shown) above
T2 sequence (P25440 whole entry, looked up): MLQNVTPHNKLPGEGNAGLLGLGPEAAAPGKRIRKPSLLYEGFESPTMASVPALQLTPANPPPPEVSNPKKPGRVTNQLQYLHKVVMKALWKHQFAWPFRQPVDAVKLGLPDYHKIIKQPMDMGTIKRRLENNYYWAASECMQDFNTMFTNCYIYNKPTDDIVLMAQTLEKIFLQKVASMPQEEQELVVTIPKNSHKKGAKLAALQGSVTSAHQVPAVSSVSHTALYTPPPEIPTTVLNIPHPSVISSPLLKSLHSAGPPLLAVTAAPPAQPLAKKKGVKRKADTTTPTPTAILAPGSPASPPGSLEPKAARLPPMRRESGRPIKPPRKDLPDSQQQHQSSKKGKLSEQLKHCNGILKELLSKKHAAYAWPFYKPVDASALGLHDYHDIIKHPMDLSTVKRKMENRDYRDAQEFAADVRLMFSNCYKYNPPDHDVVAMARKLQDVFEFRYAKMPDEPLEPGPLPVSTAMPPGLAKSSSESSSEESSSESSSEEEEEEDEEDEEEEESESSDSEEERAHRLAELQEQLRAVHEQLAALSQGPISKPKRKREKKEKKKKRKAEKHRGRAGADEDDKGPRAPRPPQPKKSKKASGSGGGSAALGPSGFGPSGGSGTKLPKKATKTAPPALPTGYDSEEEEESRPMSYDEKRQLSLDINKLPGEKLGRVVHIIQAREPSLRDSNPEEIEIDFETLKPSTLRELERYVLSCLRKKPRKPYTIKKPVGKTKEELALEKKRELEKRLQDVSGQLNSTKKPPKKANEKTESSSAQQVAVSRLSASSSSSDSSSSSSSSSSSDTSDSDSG
T2 sequence (Q96SW2 whole entry, looked up): as the sequence (Q96SW2 whole entry, looked up, other chains not shown) above
T4 sequence (Q15059 whole entry, the tested form may be a part): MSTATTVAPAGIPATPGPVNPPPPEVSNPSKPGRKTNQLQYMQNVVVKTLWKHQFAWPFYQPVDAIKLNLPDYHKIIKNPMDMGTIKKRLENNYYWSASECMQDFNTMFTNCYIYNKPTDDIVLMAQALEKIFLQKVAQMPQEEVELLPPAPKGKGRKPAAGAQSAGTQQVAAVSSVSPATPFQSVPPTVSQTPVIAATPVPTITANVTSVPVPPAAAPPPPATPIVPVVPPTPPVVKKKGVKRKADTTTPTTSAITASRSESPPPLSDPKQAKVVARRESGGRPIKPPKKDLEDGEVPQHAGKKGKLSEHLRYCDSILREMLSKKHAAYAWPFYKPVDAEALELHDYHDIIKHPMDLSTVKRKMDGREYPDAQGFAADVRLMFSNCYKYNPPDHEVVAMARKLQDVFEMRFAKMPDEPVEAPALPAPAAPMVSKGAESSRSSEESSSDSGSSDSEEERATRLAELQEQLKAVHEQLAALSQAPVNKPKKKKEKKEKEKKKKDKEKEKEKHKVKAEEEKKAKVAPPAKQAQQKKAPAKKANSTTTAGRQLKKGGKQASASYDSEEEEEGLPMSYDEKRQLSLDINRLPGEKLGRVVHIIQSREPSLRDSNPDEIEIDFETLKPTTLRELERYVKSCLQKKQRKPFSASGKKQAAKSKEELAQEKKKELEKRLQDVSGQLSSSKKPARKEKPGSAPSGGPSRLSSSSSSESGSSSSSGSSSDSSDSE

In the case of `Cc1nnc2n1-c1ccc(-c3cnn(C)c3)cc1[C@H](Nc1ccc(Cl)cc1)CC2`, the result in the assay with Mus musculus was Active. For the same compound, the values for the concentration for half-maximal inhibition (IC50) with MV4-11 and with MM1.S [1] were 270 nM and 2320 nM, respectively.

Take `Cc1sc2c(c1C)C(c1ccc(Cl)cc1)=N[C@@H](CC(=O)NCCCCNC(=O)COc1cccc3c1C(=O)N(C1CCC(=O)NC1=O)C3=O)c1nnc(C)n1-2` (stereo partly specified): the outcome (in the assay with MM1.S [2]; in assay [3]; in [4]; in [5]; in assay [6]; in assay [7]) was Active. The outcome in assay [8], in assay [9], in assay [11], in assay [12], in assay [14] and in assay [15] was Active. Also, the outcome in [17], in assay [19], in assay [21], in [22], in assay [23] and in assay [24] was Active. In addition, the result in assay [25], in assay [26] and in [27] was Active. Also, the half-inhibitory concentration (IC50) is 5.3 µM with MCF7; 12.3 µM in the assay with A549; 16.1 µM in the assay with HeLa; 19.8 µM in the assay with HepG2; 880 nM in the assay with HGC-27; 11.8 nM in the assay with MV4-11. Further, in the assay on MM1.S [1], the IC50 stood at 2470 nM. Besides, the outcome in [10] was inactive. Also, the Activity entry in assay [13] and in [20] was “Dose-Dependent Effect” each time. In addition, the Ki in assay [16] is 5.26 nM; in [18], 7.28 nM.

Broadly, the IC50 is the concentration needed to halve the response being measured. The Ki is the equilibrium dissociation constant of an inhibitor or competing ligand from its target.
